This is an account of results in US20130102631A1, “NOVEL MICROBIOCIDAL DIOXIME ETHER DERIVATIVES” (SYNGENTA CROP PROTECTION LLC, priority 2010, published 2013).

SMILES strings stand for the structures.

Assay [1] relates to Mycosphaerella graminicola (Septoria tritici). Put plainly: Mycosphaerella graminicola (Septoria tritici) / liquid culture (Septoria blotch). The format is cell-based. As to conditions: Zymoseptoria tritici; at ≦200 ppm, liquid culture PDB, inhibition of growth photometrically 4-5 days after application; read-out: control of Mycosphaerella graminicola.
The subject of assay [2] is Mycosphaerella arachidis (Cercospora arachidicola). Put plainly: Mycosphaerella arachidis (Cercospora arachidicola) / liquid culture (early leaf spot). The format is cell-based. As to conditions: at ≦200 ppm, liquid culture PDB, inhibition of growth photometrically 4-5 days after application, read-out: control of Mycosphaerella arachidis. The procedure: Mycosphaerella arachidis (Cercospora arachidicola)/Liquid Culture (Early Leaf Spot): Conidia of the fungus from cryogenic storage were directly mixed into nutrient broth (PDB potato dextrose broth). After placing a DMSO solution of test compound into a 96-well microtiter plate, the nutrient broth containing the fungal spores was added. The test plates are incubated at 24° C. and the inhibition of growth was determined photometrically 4-5 days after application. […]-2.509; 5.561; 2.561; P.57; 2.513; 2.559; 2.558; 2.557; 2.556; 2.555; 2.374; 2.553; 2.552; 2.551 (fraction B); 2.551 (fraction A); 2.544; 2.541; 2.539; 2.537; 2.536; 2.533; 2.532; 2.531; 2.530; 2.528; 2.526; 2.525 (fraction B); 2.525 (fraction A); 2.524; 2.520; 2.519; 2.510; 2.518; 2.517; 2.516; 2.514; […].002; 2.512; 2.511; 2.514

Another assay concerns Gaeumannomyces graminis. In words: Gaeumannomyces graminis / liquid culture (take-all of cereals). Type of assay: cell-based. As to conditions: at ≦200 ppm, liquid culture PDB, inhibition of growth photometrically 4-5 days after application, read-out: control of Gaeumannomyces graminis. On the procedure: Gaeumannomyces graminis/Liquid Culture (Take-All of Cereals): Mycelial fragments of the fungus from cryogenic storage were directly mixed into nutrient broth (PDB potato dextrose broth). After placing a DMSO solution of test compound into a 96-well microtiter plate, the nutrient broth containing the fungal spores is added. The test plates were incubated at 24° C. and the inhibition of growth was determined photometrically 4-5 days after application. […]-2.509; 5.561; 2.561; P.57; 2.513; 2.559; 2.558; 2.557; 2.556; 2.555; 2.374; 2.553; 2.552; 2.551 (fraction B); 2.551 (fraction A); 2.539; 2.533; 2.528; 2.526; 2.525 (fraction B); 2.525 (fraction A); 2.524; 2.523; 2.521; 2.520; 2.519; 2.510; 2.518; 2.516; 2.514; E/E-5.167; E/E-3.002; 2.512; E/E-2.508

In assay [3] the test system is Monographella nivalis (Microdochium nivale). Put plainly: Monographella nivalis (Microdochium nivale) / liquid culture (foot rot cereals). Type of assay: cell-based. As to conditions: at ≦200 ppm, liquid culture PDB, inhibition of growth photometrically 4-5 days after application, read-out: control of Monographella nivalis. On the procedure: Monographella nivalis (Microdochium nivale)/Liquid Culture (Foot Rot Cereals): Conidia of the fungus from cryogenic storage were directly mixed into nutrient broth (PDB potato dextrose broth). After placing a DMSO solution of test compound into a 96-well microtiter plate, the nutrient broth containing the fungal spores was added. The test plates were incubated at 24° C. and the inhibition of growth was determined photometrically 4-5 days after application. […].57; 2.513; 2.559; 2.558; 2.556; 2.555; 2.374; 2.553; 2.551 (fraction B); 2.551 (fraction A); 2.548; 2.544; 2.542; 2.541; 2.539; 2.536; 2.535; 2.533; 2.530; 2.528; 2.526; 2.525 (fraction B); 2.525 (fraction A); 2.524; 2.519; 2.518; 2.516; 2.514; E/E-5.167; 2.512; 2.514

The subject of a further assay is Glomerella lagenarium. Put plainly: Glomerella lagenarium (Colletotrichum lagenarium) / liquid culture (anthracnose). The settings on record: Colletotrichum orbiculare; at ≦200 ppm, liquid culture PDB, inhibition of growth photometrically 3-4 days after application; read-out: control of Glomerella lagenarium. The format is cell-based. The procedure:
Glomerella lagenarium (Colletotfichum lagenarium)/Liquid Culture (Anthracnose): Conidia of the fungus from cryogenic storage were directly mixed into nutrient broth (PDB potato dextrose broth). After placing a DMSO solution of test compound into a 96-well microtiter, the nutrient broth containing the fungal spores was added. The test plates were incubated at 24° C. and the inhibition of growth is measured photometrically 3-4 days after application. […]-2.509; 5.561; 2.561; E/E-2.208; P.57; 2.513; 2.559; 2.556; 2.555; 2.374; 2.552; 2.548; 2.544; 2.541; 2.540; 2.539; 2.537; 2.536; 2.533; 2.531; 2.530; 2.528; 2.526; 2.519; 2.510; 2.516; 2.514; E/E-5.167; E/E-3.002; 2.512; 2.514; Z/E-2.474

For assay [4], the system named is Phaeosphaeria nodorum (Septoria nodorum). Put plainly: Phaeosphaeria nodorum (Septoria nodorum) / wheat / leaf disc preventative (glume blotch). The settings on record: Parastagonospora nodorum, foliar, wheat leaf segments cv Kanzler, inoculated 2 days after application, assessed 5-7 days after application. Type of assay: in vivo. The procedure:
Phaeosphaeria nodorum (Septoria nodorum)/Wheat/Leaf Disc Preventative (Glume Blotch): Wheat leaf segments cv Kanzler were placed on agar in a 24-well plate and sprayed with formulated test compound diluted in water at an application rate of 200 ppm. The leaf disks are inoculated with a spore suspension of the fungus 2 days after application. The inoculated test leaf disks are incubated at 20° C. and 75% relative humidity under a light regime of 12/12 h (light/dark) in a climate cabinet and the activity of a compound is assessed as percent disease control compared to untreated when an appropriate level of disease damage appears in untreated check leaf disks (5-7 days after application). […]-2.508; 5.561; 2.561; E/E-2.208; P.57; 2.513; 2.559; 2.558; 2.557; 2.556; 2.555; 2.374; 2.544; 2.541; 2.539; 2.537; 2.536; 2.535; 2.533; 2.530; 2.526; 2.519; 2.510; 2.516; 2.514; E/E-5.167; E/E-3.002; 2.512

Turning to `C/C(=N\OCC(C)(C)CO/N=C1\CCCc2ccc(C)nc21)c1ncc(C(F)(F)F)cc1Cl` (single isomer, unassigned) [2.551 (fraction B)], the inhibition of growth at up to 200 µg/mL (in assay [1]; in assay [2]; in the assay on Gaeumannomyces graminis; in assay [3]) was at least 80% in each case.
Turning to `COC(=O)C/C(=N/OCC(C)(C)CO/N=C1\CCCc2ccc(C)nc21)c1ncc(Cl)cc1F` [Compound 2.518], the inhibition of growth at up to 200 µg/mL (in assay [2]; in the assay with Gaeumannomyces graminis; in assay [3]) was at least 80% in each case.
In the case of `Cc1ccc2c(n1)/C(=N/OCC(C)(C)CO/N=C(/c1ccccn1)c1ncc(C(F)(F)F)cc1Cl)CCC2` [Compound 2.520], the inhibition of growth at up to 200 µg/mL (in assay [2]; in the assay on Gaeumannomyces graminis) was at least 80% each time.
Consider `Cc1ccc2c(n1)/C(=N/OCC(C)(C)CO/N=C(/c1ccccc1)c1ncc(C(F)(F)F)cc1Cl)CCC2` [Compound 2.521], for which, in the assay with Gaeumannomyces graminis, the inhibition of growth at up to 200 µg/mL is at least 80%.
On the same count and under the same terms, as for `CCOC(=O)c1ccc(/C(C)=N\OCC(C)(C)CO/N=C2\CCCc3ccc(C)nc32)nc1C(F)(F)F` [Compound 2.523], the figure is at least 80%.
Turning to `CC/C(=N/OCC(C)(C)CO/N=C1\CCCc2ccc(C)nc21)c1ccc(C(F)(F)F)cn1` [Compound 2.524], the inhibition of growth at up to 200 µg/mL (in assay [2]; with Gaeumannomyces graminis; in assay [3]) was at least 80% each time.
`C/C(=N\OCC(C)(C)CO/N=C1\CCCc2ccc(C)nc21)c1cc(C#N)ccn1` [Compound 2.531]: the inhibition of growth at up to 200 µg/mL (in the assay with Glomerella lagenarium; in assay [1]; in assay [2]) was at least 80% each time.
On to `Cc1ccc2c(n1)/C(=N/OCC(C)(C)CO/N=C(\c1ccc(Cl)cc1)c1ccccn1)CCC2` [Compound 2.532], for which the inhibition of growth at up to 200 µg/mL in assay [1] and in assay [2] was at least 80% each time.
The compound `CSc1nc(/C=N/OCC(C)(C)CO/N=C2\CCCc3ccc(C)nc32)ccc1C#N` [Compound 2.535] yielded a pest or weed control at 200 ppm in assay [4] of at least 80%. Moreover, the inhibition of growth at up to 200 µg/mL in assay [1] and in assay [3] was at least 80% each time.
Compound `C/C(=N\OCC(C)(C)CO/N=C1\CCCc2ccc(C)nc21)c1cccc(C#N)n1` [Compound 2.536] came in with a pest or weed control at 200 ppm in assay [4] of at least 80%. In addition, the inhibition of growth at up to 200 µg/mL (in the assay on Glomerella lagenarium; in assay [1]; in assay [2]; in assay [3]) was at least 80% throughout.
`Cc1ccc2c(n1)/C(=N/OCC(C)(C)CO/N=C(/c1cccc(Br)n1)c1ccccc1C)CCC2` [Compound 2.539] showed a pest or weed control at 200 ppm in assay [4] of at least 80%. Also, the inhibition of growth at up to 200 µg/mL (with Glomerella lagenarium; in assay [1]; in assay [2]; in the assay with Gaeumannomyces graminis; in assay [3]) was at least 80% each time.
Consider `COC(=O)c1ccc(C(F)(F)F)nc1/C(C)=N/OCC(C)(C)CO/N=C1\CCCc2ccc(C)nc21` [Compound 2.540], for which the inhibition of growth at up to 200 µg/mL (in the assay on Glomerella lagenarium; in assay [1]) was at least 80% in each case.
Regarding `C/C(=N\OCC(C)(C)CO/N=C1\CCCc2ccc(C)nc21)c1cc(C(C)(C)C)ccn1` [Compound 2.541], in assay [4], the pest or weed control at 200 ppm is at least 80%. For the same compound, the inhibition of growth at up to 200 µg/mL (in the assay on Glomerella lagenarium; in assay [1]; in assay [2]; in assay [3]) was at least 80% in each case.
For the compound `Cc1ccc2c(n1)/C(=N/OCC(C)(C)CO/N=C(/c1ncc(Cl)cc1Cl)C(C)C)CCC2` [Compound 2.542], the inhibition of growth at up to 200 µg/mL in assay [1] and in assay [3] was at least 80% in each case.
For the compound `Cc1ccc2c(n1)/C(=N/OCC(C)(C)CO/N=C(\c1ncc(Cl)cc1F)C(C)Cl)CCC2` (stereo not drawn) [Compound 2.545], the inhibition of growth at up to 200 µg/mL in assay [1] is at least 80%.
For `C/C(=N\OCC(C)(C)CO/N=C1\CCCc2ccc(C)nc21)c1ncc(Cl)cc1O` [Compound 2.548], the inhibition of growth at up to 200 µg/mL (in the assay on Glomerella lagenarium; in assay [1]; in assay [3]) was at least 80% in each case.
`CC/C(=N\OCC(C)(C)CO/N=C1\CCCc2ccc(C)nc21)c1ncc(Cl)cc1Cl` [Compound 2.549]: the inhibition of growth at up to 200 µg/mL in assay [1] is at least 80%.
With `C/C(=N\OCC(C)(C)CO/N=C1\CCCc2ccc(C)nc21)c1ncc(Cl)cc1F` [E/E-2.509], the inhibition of growth at up to 200 µg/mL (in the assay with Glomerella lagenarium; in assay [1]; in assay [2]; in the assay with Gaeumannomyces graminis; in assay [3]) was at least 80% throughout.
Consider `Cc1cccc(/C(=N\OCC(C)(C)CO/N=C2\CCCc3ccc(C)nc32)c2ccccc2)n1` [Z/E-2.474], for which the inhibition of growth at up to 200 µg/mL (in the assay with Glomerella lagenarium; in assay [2]) was at least 80% in each case.

Usually pest or weed control stands for how far the test organism was held down.
